Data as given in ChEMBL document CHEMBL5143528, “Heat shock protein 90 (Hsp90)/Histone deacetylase (HDAC) dual inhibitors for the treatment of azoles-resistant Candida albicans” (Eur J Med Chem, 2022).
pIC50: −log10 of the molar value. Calls of active or inactive are those of the source. No cut-off for these calls is given here.

How the values were obtained:
Candida albicans [1] = experiment: microbe, parasite or virus in culture; assay type: functional; settings: 0304103, time 48 hrs
Description: Antifungal activity against azole-resistant Candida albicans 0304103 assessed as fungal growth inhibition incubated for 48 hrs by CLSI based checkerboard microdilution assay

Candida albicans [2] = assay type: functional, 0304103; settings: time 48 hrs
Description: Synergistic antifungal activity against azole-resistant Candida albicans 0304103 assessed as fractional inhibitory concentration in presence of fluconazole incubated for 48 hrs by CLSI based checkerboard microdilution assay

Candida albicans [3] = assay type: functional, 0304103; settings: time 48 hrs; remark: listed apart in the source
Description: Synergistic antifungal activity against azole-resistant Candida albicans 0304103 assessed as fractional inhibitory concentration incubated for 48 hrs by CLSI based checkerboard microdilution assay

Candida albicans [4] = assay type: functional, 0304103; settings: time 48 hrs; remark: listed apart in the source
Description: Synergistic antifungal activity against azole-resistant Candida albicans 0304103 assessed as fractional inhibitory concentration index in presence of fluconazole incubated for 48 hrs by CLSI based checkerboard microdilution assay

A549 = experiment: Cytotoxicity against human A549 cells assessed as inhibition of cell growth; assay type: functional, cell-based
HEL = experiment: Cytotoxicity against human HEL cells assessed as inhibition of cell growth; assay type: functional, cell-based
Candida albicans [5] = experiment: Upregulation of ERG11 expression in azole-resistant Candida albicans 0304103 at 8 ug/ml by RT-PCR analysis; assay type: functional; settings: dose 8.0 µg/ml
[6] = Cytotoxicity against human HaCaT cells assessed as inhibition of cell growth; assay type: toxicity, cell-based
[7] = Inhibition of fungal HDAC using Boc-Lys (acetyl)-AMC as substrate preincubated for 12 hrs followed by substrate addition and measured after 6 hrs by fluorescence-based analysis; set-up: species or system Fungi
[8] = Toxicity in ICR mouse infected with azole-resistant Candida albicans 0304103 assessed as reduction in survival time at 10 mg/kg, ip administered once daily for 5 days; assay type: organism-based; settings: in vivo, 120 h, time 5 day
Candida albicans [9] = experiment: Inhibition of biofilm formation in azole-resistant Candida albicans 0304103 at 64 ug/ml incubated for 24 hrs by XTT reduction assay; assay type: functional, organism-based; settings: dose 64.0 µg/ml
Candida albicans [10] = experiment: Inhibition of biofilm formation in azole-resistant Candida albicans 0304103 assessed as downregulation of […] expression at 64 ug/ml by RT-PCR analysis; assay type: functional, organism-based; settings: dose 64.0 µg/ml
Candida albicans [11] = experiment: Inhibition of biofilm formation in azole-resistant Candida albicans 0304103 assessed as downregulation of HWP1 expression at 64 ug/ml by RT-PCR analysis; assay type: functional, organism-based; settings: dose 64.0 µg/ml
Candida albicans [12] = experiment: Inhibition of biofilm formation in azole-resistant Candida albicans 0304103 assessed as downregulation of EAP1 expression at 64 ug/ml by RT-PCR analysis; assay type: functional, organism-based; settings: dose 64.0 µg/ml
Candida albicans [13] = experiment: Inhibition of biofilm formation in azole-resistant Candida albicans 0304103 assessed as downregulation of BCR1 expression at 64 ug/ml by RT-PCR analysis; assay type: functional, organism-based; settings: dose 64.0 µg/ml
[14] = Inhibition of fungal HSP90 incubated for 6 hrs in presence of FITC-Geldanamycin by fluorescence polarization analysis; set-up: species or system Fungi
Heat shock protein HSP90 = Heat shock protein HSP90 (Homo sapiens, UniProt P07900+P08238); experiment: Inhibition of human HSP90; assay type: protein assay
Histone deacetylase = assay type: protein assay, Homo sapiens
Candida albicans [15] = experiment: Downregulation of ERG11 expression in azole-resistant Candida albicans 0304103 at 8 ug/ml in presence of fluconazole by RT-PCR analysis; assay type: functional; settings: dose 8.0 µg/ml
Candida albicans [16] = experiment: Downregulation of CDR1 expression in azole-resistant Candida albicans 0304103 at 8 ug/ml in presence of fluconazole by RT-PCR analysis; assay type: functional; settings: dose 8.0 µg/ml
Candida albicans [17] = experiment: Antifungal activity against azole-resistant Candida albicans 0304103 infected in ICR mouse assessed as reduction in fungal burden in kidney at 10 mg/kg, ip administered once daily for 5 days in presence of fluconazole; assay type: functional, organism-based; settings: time 5.0 day
Candida albicans [18] = experiment: (§1) Antifungal activity against azole-resistant Candida albicans 0304103 infected in ICR mouse assessed as assessed as reduction in fungal burden in kidney by measuring reduction in fungal invasion at 10 mg/kg, ip administered once daily for 5 days in presence of fluconazole by Periodic acid-Schiff staining based analysis; assay type: functional, organism-based; settings: time 5.0 day
Candida albicans [19] = experiment: Antifungal activity against azole-resistant Candida albicans 0304103 infected in ICR mouse assessed as reduction in fungal burden in kidney by measuring smooth kidney tissue at 10 mg/kg, ip administered once daily for 5 days in presence of fluconazole by Periodic acid-Schiff staining based analysis; assay type: functional, organism-based; settings: time 5.0 day
Candida albicans [20] = experiment: as §1, with “as” for “as assessed as”, “neat and dense arrangement of cells” for “reduction in fungal invasion”; assay type: functional, organism-based; settings: time 5.0 day

## CC(C)c1cc(-c2n[nH]c(=O)n2-c2cccc(C(=O)NCCCCCC(=O)NO)c2)c(O)cc1O
Candida albicans [1]
  MIC80: > 64 µg/mL
Candida albicans [2]
  FIC: 64 µg/mL
Candida albicans [3]
  FIC: 16 µg/mL
Candida albicans [4]
  fractional inhibitory concentration index (FICI): 1.25
A549
  pIC50: 5.34
HEL
  pIC50: 5.34

## OC(Cn1cncn1)(Cn1cncn1)c1ccc(F)cc1F
Candida albicans [5]
  Activity: Active

## CC(C)c1cc(-c2n[nH]c(=O)n2-c2ccc(C(=O)NCCCC(=O)NO)cc2)c(O)cc1O
Candida albicans [1]
  MIC80: > 64 µg/mL
Candida albicans [2]
  FIC: 1 µg/mL
Candida albicans [3]
  FIC: 16 µg/mL
Candida albicans [4]
  fractional inhibitory concentration index (FICI): 0.266
A549
  pIC50: 5.34
HEL
  pIC50: 5.34

## CC(C)c1cc(-c2n[nH]c(=O)n2-c2ccc(NC(=O)CCCC(=O)NO)cc2)c(O)cc1O
Candida albicans [1]
  MIC80: > 64 µg/mL
Candida albicans [2]
  FIC: 1 µg/mL
Candida albicans [3]
  FIC: 4 µg/mL
Candida albicans [4]
  fractional inhibitory concentration index (FICI): 0.078
A549
  pIC50: 7.62
HEL
  pIC50: 7.62

## CC(C)c1cc(-c2n[nH]c(=O)n2-c2ccc(NC(=O)CCCCC(=O)NO)cc2)c(O)cc1O
Candida albicans [1]
  MIC80: > 64 µg/mL
Candida albicans [2]
  FIC: 16 µg/mL
Candida albicans [3]
  FIC: 16 µg/mL
Candida albicans [4]
  fractional inhibitory concentration index (FICI): 0.5
A549
  pIC50: 7.62
HEL
  pIC50: 7.62

## CC(C)c1cc(-c2n[nH]c(=O)n2-c2cccc(NC(=O)CCCCCC(=O)NO)c2)c(O)cc1O
Candida albicans [1]
  MIC80: > 64 µg/mL
Candida albicans [2]
  FIC: 32 µg/mL
Candida albicans [3]
  FIC: 64 µg/mL
Candida albicans [4]
  fractional inhibitory concentration index (FICI): 1.5
A549
  pIC50: 5.80
HEL
  pIC50: 5.80

## CC(C)c1cc(-c2n[nH]c(=O)n2-c2cccc(NC(=O)CCCCCCC(=O)NO)c2)c(O)cc1O
Candida albicans [1]
  MIC80: > 64 µg/mL
Candida albicans [2]
  FIC: 2 µg/mL
Candida albicans [3]
  FIC: 8 µg/mL
Candida albicans [4]
  fractional inhibitory concentration index (FICI): 0.156
A549
  pIC50: 5.80
HEL
  pIC50: 5.80

## CC(C)c1cc(-c2n[nH]c(=O)n2-c2ccc(NC(=O)CCCCCCC(=O)NO)cc2)c(O)cc1O
Candida albicans [1]
  MIC80: > 64 µg/mL
Candida albicans [2]
  FIC: 4 µg/mL
Candida albicans [3]
  FIC: 8 µg/mL
Candida albicans [4]
  fractional inhibitory concentration index (FICI): 0.188
A549
  pIC50: 7.62
HEL
  pIC50: 7.62

## CC(C)c1cc(-c2n[nH]c(=O)n2-c2ccc(C(=O)NCCCCCC(=O)NO)cc2)c(O)cc1O
Candida albicans [1]
  MIC80: > 64 µg/mL
Candida albicans [2]
  FIC: >64 µg/mL
Candida albicans [3]
  FIC: >64 µg/mL
Candida albicans [4]
  fractional inhibitory concentration index (FICI): 2
A549
  pIC50: 5.34
HEL
  pIC50: 5.34

## O=C(CCCCCCC(=O)Nc1ccccc1)NO [VORINOSTAT]
[6]
  pIC50: 5.73
[7]
  pIC50: 5.44
[8]
  Activity: Toxic

## CC(C)c1cc(-c2n[nH]c(=O)n2-c2ccc(C(=O)NCCCCCCC(=O)NO)cc2)c(O)cc1O
Candida albicans [1]
  MIC80: > 64 µg/mL
Candida albicans [2]
  FIC: 1 µg/mL
Candida albicans [3]
  FIC: 16 µg/mL
Candida albicans [4]
  fractional inhibitory concentration index (FICI): 0.266
A549
  pIC50: 5.34
HEL
  pIC50: 5.34

## CC(C)c1cc(-c2n[nH]c(=O)n2-c2ccc(NC(=O)CCCCCC(=O)NO)cc2)c(O)cc1O
Candida albicans [1]
  MIC80: > 64 µg/mL
Candida albicans [2]
  FIC: 8 µg/mL
Candida albicans [3]
  FIC: 8 µg/mL
Candida albicans [4]
  fractional inhibitory concentration index (FICI): 0.25
A549
  pIC50: 7.62
HEL
  pIC50: 7.62

## CC(C)c1cc(-c2n[nH]c(=O)n2-c2cccc(C(=O)NCCCCCCC(=O)NO)c2)c(O)cc1O
Candida albicans [1]
  MIC80: > 64 µg/mL
Candida albicans [2]
  FIC: 1 µg/mL
Candida albicans [3]
  FIC: 8 µg/mL
Candida albicans [4]
  fractional inhibitory concentration index (FICI): 0.141
A549
  pIC50: 5.34
HEL
  pIC50: 5.34
[6]
  pIC50: < 5.21
Candida albicans [9]
  inhibition: Active
Candida albicans [10]
  inhibition: Active
Candida albicans [11]
  inhibition: Active
Candida albicans [12]
  inhibition: Active
Candida albicans [13]
  inhibition: Active

## CC(C)c1cc(-c2n[nH]c(=O)n2-c2ccc(C(=O)NCCCCC(=O)NO)cc2)c(O)cc1O
Candida albicans [1]
  MIC80: > 64 µg/mL
Candida albicans [2]
  FIC: 8 µg/mL
Candida albicans [3]
  FIC: 4 µg/mL
Candida albicans [4]
  fractional inhibitory concentration index (FICI): 0.188
A549
  pIC50: 5.34
HEL
  pIC50: 5.34

## CNC(=O)CCCCCCCNC(=O)c1cccc(-n2c(-c3cc(C(C)C)c(O)cc3O)n[nH]c2=O)c1
Candida albicans [1]
  MIC80: > 64 µg/mL
Candida albicans [2]
  FIC: 2 µg/mL
Candida albicans [3]
  FIC: 8 µg/mL
Candida albicans [4]
  fractional inhibitory concentration index (FICI): 0.156
A549
  pIC50: 5.34
HEL
  pIC50: 5.34
[6]
  pIC50: < 5.21

## CC(C)c1cc(-c2n[nH]c(=O)n2-c2cccc(C(=O)NCCCC(=O)NO)c2)c(O)cc1O
Candida albicans [1]
  MIC80: > 64 µg/mL
Candida albicans [2]
  FIC: 64 µg/mL
Candida albicans [3]
  FIC: 64 µg/mL
Candida albicans [4]
  fractional inhibitory concentration index (FICI): 2
A549
  pIC50: 5.34
HEL
  pIC50: 5.34

## CC(C)c1cc(-c2n[nH]c(=O)n2-c2ccc3c(ccn3C)c2)c(O)cc1O [GANETESPIB]
Candida albicans [1]
  MIC80: > 64 µg/mL
Candida albicans [2]
  FIC: 1 µg/mL
Candida albicans [3]
  FIC: 0.5 µg/mL
[6]
  pIC50: > 7.82
[14]
  pIC50: 6.18
[8]
  Activity: Toxic

## CC(C)c1cc(-c2n[nH]c(=O)n2-c2ccc(C(=O)NCCCCCCCC(=O)NO)cc2)c(O)cc1O
Candida albicans [1]
  MIC80: > 64 µg/mL
Candida albicans [2]
  FIC: 1 µg/mL
Candida albicans [3]
  FIC: 16 µg/mL
Candida albicans [4]
  fractional inhibitory concentration index (FICI): 0.266
A549
  pIC50: 5.34
HEL
  pIC50: 5.34
[6]
  pIC50: < 5.21
Candida albicans [9]
  inhibition: Active
Candida albicans [10]
  inhibition: Active
Candida albicans [11]
  inhibition: Active
Candida albicans [12]
  inhibition: Active
Candida albicans [13]
  inhibition: Active
Heat shock protein HSP90
  IC50: 19.52 µM
[14]
  pIC50: 6.08
Histone deacetylase
  IC50: 3 µM
[7]
  pIC50: 6.04
Candida albicans [15]
  Activity: Active
Candida albicans [16]
  Activity: Active
Candida albicans [17]
  Activity: Active
Candida albicans [18]
  Activity: Active
Candida albicans [19]
  Activity: Active
Candida albicans [20]
  Activity: Active

## CC(C)c1cc(-c2n[nH]c(=O)n2-c2cccc(NC(=O)CCCCC(=O)NO)c2)c(O)cc1O
Candida albicans [1]
  MIC80: > 64 µg/mL
Candida albicans [2]
  FIC: 32 µg/mL
Candida albicans [3]
  FIC: 64 µg/mL
Candida albicans [4]
  fractional inhibitory concentration index (FICI): 1.5
A549
  pIC50: 5.80
HEL
  pIC50: 5.80

## CC(C)c1cc(-c2n[nH]c(=O)n2-c2cccc(C(=O)NCCCCC(=O)NO)c2)c(O)cc1O
Candida albicans [1]
  MIC80: > 64 µg/mL
Candida albicans [2]
  FIC: 64 µg/mL
Candida albicans [3]
  FIC: 16 µg/mL
Candida albicans [4]
  fractional inhibitory concentration index (FICI): 1.25
A549
  pIC50: 5.34
HEL
  pIC50: 5.34
